From US12447167B2, “GM-CSF-producing t-cell control agent and Th1/Th2 immune balance regulator” (National Center of Neurology and Psychiatry, priority 2014, dated 2025)

What was measured:
[1] = system: IL-4; experiment: IL-4 expression level of sorted CD4-positive memory T-cells of MS patients (ELISA of culture supernatant); assay type: in vivo, human; conditions: 0.3 mg single oral
Procedure: A single dose of compound 31, which is a synthetic glycolipid of the present invention, described in the first aspect was orally administered to each of 2 MS patients (subjects) shown in Table 2 above after obtainment of informed consent. The dose was set to 0.3 mg per person.
Subsequently, T-cell subfractions were prepared from the peripheral blood of each subject by using the density gradient centrifugation method. First, a total of 20 mL of blood was collected from the vein of each subject 24 hours (1st day), 48 hours (2nd day), 72 hours (3rd day), 168 hours (7th day), and 192 hours (8th day) after the administration of compound 31 by using two 10-mL heparin sodium-containing vacuum blood collection tubes. For a control, 20 mL of blood was similarly collected from the vein of each subject one day before the administration of compound 31.
The collected PBMCs were stained with antibodies by the following method. First, 10 μL of a solution consisting of 20 μL of MACS buffer, 0.25 μL of APC-Cy7-anti-CD3 antibody (BioLegend, Inc.), 1 μL of PB-anti-CD4 antibody (BioLegend, Inc.), 1 μL of PerCP-Cy5.5-anti-CD45RA antibody (BioLegend, Inc.), and 1 μL of PC7-anti-CD56 antibody (Beckman Coulter, Inc.) was added to 6×10^6 cells of PBMCs, thoroughly mixed by vortexing, and then left on ice for 20 minutes. CD56 is a detection marker of cells having NK activity, and CD3^−CD56^− cells indicate being antigen-presenting cells (APCs). […]
mCD4T and APC obtained by the sorting were each suspended in a medium consisting of 500 mL of RPMI1640 (GIBCO/Thermo Fisher Scientific Inc.), 5 mL of glutamine (200 mM, Wako Pure Chemical Industries, Ltd.), 5 mL of Pen/strep (10,000 U/mL, GIBCO/Thermo Fisher Scientific Inc.), 0.5 mL of 2-mercaptoethanol (GIBCO/Thermo Fisher Scientific Inc.), and 50 mL of 10% (v/v) Cellect FETAL BOVINE SERUM (MP Biomedicals, LLC), and the number of cells was measured. […]
After the culture, a culture supernatant was collected, and IFN-γ, IL-4, IL-17, and GM-CSF were measured by the ELISA method. […]

[2] = system: GM-CSF production from lymph node T-cells; experiment: Amount of GM-CSF in lymph node cell culture supernatants of mice after oral dose (ELISA); assay type: in vivo, C57BL/6 mice; conditions: for suppressive effects on GM-CSF production from lymph node T-cells: oral high dose 1 mg/kg
Procedure: Compound 31 was orally administered to 8-week-old C57BL/6 mice (female) by using a probe. The dose employed 15 μg/kg (low dose) of compound 31 or 1 mg/kg (high dose) of compound 31 dissolved in 200 μL of mouse drinking water. As a control, 200 μL of mouse drinking water was administered alone.
2 days or 7 days after the oral administration of compound 31, each mouse was euthanized by cervical dislocation, and axillary and inguinal lymph nodes were collected. The collected lymph nodes were disrupted on BD Falcon Cell Strainer (Becton, Dickinson and Company) having a diameter of 40 μm, PBS was added, and the resultant was recovered into a 50-mL conical tube and centrifuged at 1500 rpm for 5 minutes, and then, a supernatant was removed by suction.
The recovered cells were suspended into a single cell suspension by adding 1000 μL of an RPMI medium (Life Technologies Corp.) containing 10% FBS (Fetal Bovine Serum; Life Technologies Corp.), and then, the number of cells was measured with a counting chamber.
On the day prior to the lymph node collection from the mice after the administration, an anti-CD3 monoclonal antibody (self-produced) and an anti-CD28 antibody (Becton, Dickinson and Company) were each adjusted to 1 μg/mL with PBS, placed at 50 μL to each well of BD Falcon 96-well flat bottom plate (Becton, Dickinson and Company), and stored at 4° C. so that the plate was coated with the anti-CD3/CD28 antibodies. The prepared single cell suspension was inoculated at 5×10^5 cells/well to the plate and then cultured at 37° C. for 48 hours in a 5% CO2 incubator to perform stimulation with the anti-CD3 antibody and the anti-CD28 antibody.
A supernatant was recovered, and the concentration of GM-CS contained in the culture supernatant was measured by using an ELISA kit (OptEIA Mouse GM-CSF ELISA set; Becton, Dickinson and Company) according to the attached document.

[3] = Disposition after single oral dose, rat; assay type: in vivo; conditions: male rat, 10 mg/kg single oral, 14C-labeled, fasting
Procedure: After a single dose of compound 31 labeled with ^14C was orally administered at a predetermined dose to each of a male mouse, a male rat, and a male cynomolgus monkey under fasting conditions, the concentration in blood was measured after a lapse of a given time, and parameters such as maximum plasma concentration Cmax, time Tmax to reach the maximum plasma concentration, half-life t1/2, area under curve AUC0-∞, mean retention time MRT0-∞, and bioavailability BA were calculated. The concentration in blood in humans (normal subjects) was measured and each of the parameters was calculated, in the similar manner as above except that ^14C-unlabeled compound 31 was used.
In the tables, “N.D.” means not detected.

AUC(0-inf) ([3]; blood): 3330 ng·h/mL
AUC(0-t) ([3]; blood): 3130 ng·h/mL
half-life ([3]; blood): 26 h
MRT inf ([3]; blood, read-out: MRT0-∞): 32.4 h
BA [3]: 0.51%
Rate of absorption [3]: 0.96%
concentration in blood ([3]; 4 h): 31
concentration in blood ([3]; 8 h): 128
concentration in blood ([3]; 12 h): 101
concentration in blood ([3]; 24 h): 47.1
concentration in blood ([3]; 48 h): 18.5
concentration in blood ([3]; 72 h): 10.2
Cmax ([3]; plasma): 128 ng/mL
Tmax ([3]; plasma): 8 h
Compound: CCCCCCCCCCCCCCCCCCCCCCCC(=O)NC(COC1OC(CO)C(O)C(O)C1O)[C@H](O)C(O)CCCCC (stereo in doubt) [compound 31, (2S,3S,4R)-1-O-(α-D-galactosyl)-2-(N-tetracosanoylamino)-1,3,4-nonanetriol]
IL-4 expression level ([1]; day 8, MBP stimulation, day −1 value 3.63): 6.38
IL-4 expression level ([1]; day 8, OVA stimulation, day −1 value 3.66): 7.19
change of expression level of IL-4 ([1]; day8 vs day-1): increased
suppressive effects on GM-CSF production from lymph node T-cells ([2]; 2nd day after administration): not seen
suppressive effects on GM-CSF production from lymph node T-cells ([2]; 7th day after administration): observed
GM-CSF production from lymph node T-cells ([2]; oral low dose 15 μg/kg, anti-CD3/CD28 stimulation 48 h, vs vehicle): significantly suppressed
